Reference: article PMC4894406, “Results of an abbreviated phase-II study with the Akt Inhibitor MK-2206 in Patients with Advanced Biliary Cancer” (Scientific Reports, 2015)
“And” between values parts separate entries of the source, which are not always exact repeats. Identical values can stand only once. Like-named read-outs stand apart in the source and are kept apart here.

Columns and labels:
human Akt (Akt-1) = details: cited from earlier work
CYP2C9 = tested on: CYP2C9; set-up: method as in PMID 24387695; details: read-out: IC50 CYP2C9 inhibition; cited from earlier work
human Akt (Akt-3) = details: cited from earlier work
CYP3A4 = tested on: CYP3A4; set-up: method as in PMID 24387695; details: read-out: IC50 CYP3A4 inhibition; cited from earlier work
P-glycoprotein = details: cited from earlier work
[1] = Plasma pharmacokinetics in biliary cancer patients (LC-MS/MS, non-compartmental); type: in vivo, human; details: for AUC(0-t): read-out: AUC0–96; for Vd/F: read-out: Vz/F; for k el: read-out: λz (converted)
Experimental: Plasma samples were collected from all patients at Week 1 of Cycle 1 immediately prior to dose administration, and at 30 min, 1, 2, 3, 4, 6, 8, 24, 48, and 96 hours after dose administration. The 24, 48 and 96-hour samples were collected on the mornings of days 2, 3 and 5 within 4 hours of the target time (e.g. 24 ± 4, 48 ± 4, and 96 ± 4 hours). Plasma samples were also collected immediately prior to the oral intake of MK-2206 tablet(s) on days 8, 15 and 29 (i.e. Cycle 2, Day 1) so that trough pre-dose levels of MK-2206 could be determined in the following studies. The plasma levels of MK-2206 were evaluated using quantitative liquid chromatography/tandem mass spectrometry (LC-MS/MS) at Merck & Co. Non-compartmental PK parameters were determined for MK-2206 using Phoenix WinNonlin (v6.3, Pharsight, Mountain View, CA).

CYP3A = tested on: CYP3A; set-up: method as in PMID 24387695; details: at 0.1 to 10 μM; cited from earlier work
CYP2D6 = tested on: CYP2D6; set-up: method as in PMID 24387695; details: read-out: IC50 CYP2D6 inhibition; cited from earlier work
[2] = set-up: method as in Fouladi et al. [23]; details: children with refractory malignancies, 9 subjects, 120 mg/m^2 weekly oral, first dose; ref Fouladi et al. [23]; cited from earlier work
[3] = OSU Trial, 7 subjects (subject 1004 excluded), BSA-adjusted
[4] = OSU Trial, 7 subjects (subject 1004 excluded), first dose 200 mg
[5] = human, plasma, po, 200 mg, subject 1001, first dose 200 mg oral
[6] = human, plasma, po, 200 mg, subject 1002, first dose 200 mg oral
[7] = human, plasma, po, 200 mg, subject 1003, first dose 200 mg oral
[8] = human, plasma, po, 200 mg, subject 1004, first dose 200 mg oral
[9] = human, plasma, po, 200 mg, subject 1005, first dose 200 mg oral
[10] = human, plasma, po, 200 mg, subject 1007, first dose 200 mg oral
[11] = human, plasma, po, 200 mg, subject 2006, first dose 200 mg oral
[12] = human, plasma, po, 200 mg, subject 2008, first dose 200 mg oral

NC1(c2ccc(-c3nc4ccn5c(=O)[nH]nc5c4cc3-c3ccccc3)cc2)CCC1 [MK-2206]
IC50 (human Akt (Akt-1)): 8 nM | IC50 (CYP2C9): > 35000 nM | IC50 (human Akt (Akt-3)): 65 nM | IC50 (CYP3A4): […] | P-glycoprotein substrate (P-glycoprotein): substrate of P-glycoprotein | CL/F/m^2 (BSA-adjusted CL/F) [1, 3]: 16.5 +/− 7.2 L/hr/m^2 and 16.5±7.2 L/hr/m^2 | Vz/F/m^2 [1, 3]: 1521±931 L/m^2 | Cmax (average) [1, 4]: 114 ng/mL | Tmax (average) [1, 4]: 6.0 ± 1.6 h | concentration at 48 h ([1]; human, plasma, oral, 200 mg, 6 of 8 patients, read-out: 48-hr plasma concentration): > 22.7 ng/mL and > 56.8 nM | half-life ([1]; human, plasma, oral, 200 mg, OSU Trial, 7 subjects (subject 1004 excluded), first dose 200 mg, read-out: Half life (average) (converted)): 63.5 ± 21.2 h | concentration at 8 day ([1]; human, plasma, oral, 200 mg, day 8, 200 mg weekly, read-out: trough pre-dose average plasma concentration): 14.7 ng/mL | concentration at 15 day ([1]; human, plasma, oral, 200 mg, day 15, 200 mg weekly, read-out: trough pre-dose average plasma concentration): 14.4 ng/mL | concentration at 48 h ([1]; human, plasma, oral, 200 mg, one of the other two patients, read-out: Plasma concentration measured at 48 hours): 18.5 ng/mL | concentration at 48 h ([1]; human, plasma, oral, 200 mg, subject 1004, read-out: Plasma concentration measured at 48 hours): 5.06 ng/mL | Tmax ([1]; human, plasma, po, 200 mg, eight patients, first dose 200 mg oral, read-out: Tmax, range): 4 to 8 h | half-life ([1]; human, plasma, po, 200 mg, eight patients, first dose 200 mg oral, read-out: median terminal elimination half-life (converted)): 58 h | Tmax ([1]; human, plasma, po, 200 mg, eight patients, first dose 200 mg oral, read-out: median time to peak observed plasma concentrations (Tmax)): 6 h | half-life ([1]; human, plasma, po, 200 mg, eight patients, first dose 200 mg oral, read-out: terminal elimination half-life, range): 34 to 88 h | Cmax [1, 5]: 106 ng/mL | AUC(0-t) [1, 5]: 3320 ng·h/mL | half-life ([1]; human, plasma, po, 200 mg, subject 1001, first dose 200 mg oral, read-out: Half-life (converted)): 53.3 h | Tmax ([1]; human, plasma, po, 200 mg, subject 1001, first dose 200 mg oral, read-out: Tmax): 4 h | Vd/F [1, 5]: 3270 L | k el [1, 5]: 3.61e-06 s⁻¹ | Cmax [1, 6]: 111 ng/mL | AUC(0-t) [1, 6]: 6850 ng·h/mL | half-life ([1]; human, plasma, po, 200 mg, subject 1002, first dose 200 mg oral, read-out: Half-life (converted)): 80.4 h | Tmax ([1]; human, plasma, po, 200 mg, subject 1002, first dose 200 mg oral, read-out: Tmax): 6 h | Vd/F [1, 6]: 1870 L | k el [1, 6]: 2.5e-06 s⁻¹ | Cmax [1, 7]: 176 ng/mL | AUC(0-t) [1, 7]: 8450 ng·h/mL | half-life ([1]; human, plasma, po, 200 mg, subject 1003, first dose 200 mg oral, read-out: Half-life (converted)): 33.8 h | Tmax ([1]; human, plasma, po, 200 mg, subject 1003, first dose 200 mg oral, read-out: Tmax): 6 h | Vd/F [1, 7]: 989 L | k el [1, 7]: 5.83e-06 s⁻¹ | Cmax [1, 8]: 11.1 ng/mL | AUC(0-t) [1, 8]: 531 ng·h/mL | half-life ([1]; human, plasma, po, 200 mg, subject 1004, first dose 200 mg oral, read-out: Half-life (converted)): 62.5 h | Tmax ([1]; human, plasma, po, 200 mg, subject 1004, first dose 200 mg oral, read-out: Tmax): 8 h | Vd/F [1, 8]: 22200 L | k el [1, 8]: 3.06e-06 s⁻¹ | Cmax [1, 9]: 108 ng/mL | AUC(0-t) [1, 9]: 6020 ng·h/mL | half-life ([1]; human, plasma, po, 200 mg, subject 1005, first dose 200 mg oral, read-out: Half-life (converted)): 86.9 h | Tmax ([1]; human, plasma, po, 200 mg, subject 1005, first dose 200 mg oral, read-out: Tmax): 8 h | Vd/F [1, 9]: 2210 L | k el [1, 9]: 2.22e-06 s⁻¹ | Cmax [1, 10]: 90.1 ng/mL | AUC(0-t) [1, 10]: 3730 ng·h/mL | half-life ([1]; human, plasma, po, 200 mg, subject 1007, first dose 200 mg oral, read-out: Half-life (converted)): 50.2 h | Tmax ([1]; human, plasma, po, 200 mg, subject 1007, first dose 200 mg oral, read-out: Tmax): 6 h | Vd/F [1, 10]: 2880 L | k el [1, 10]: 3.89e-06 s⁻¹ | Cmax [1, 11]: 144 ng/mL | AUC(0-t) [1, 11]: 5850 ng·h/mL | half-life ([1]; human, plasma, po, 200 mg, subject 2006, first dose 200 mg oral, read-out: Half-life (converted)): 52.4 h | Tmax ([1]; human, plasma, po, 200 mg, subject 2006, first dose 200 mg oral, read-out: Tmax): 4 h | Vd/F [1, 11]: 1870 L | k el [1, 11]: 3.61e-06 s⁻¹ | Cmax [1, 12]: 44.7 ng/mL | AUC(0-t) [1, 12]: 2060 ng·h/mL | half-life ([1]; human, plasma, po, 200 mg, subject 2008, first dose 200 mg oral, read-out: Half-life (converted)): 87.5 h | Tmax ([1]; human, plasma, po, 200 mg, subject 2008, first dose 200 mg oral, read-out: Tmax): 8 h | Vd/F [1, 12]: 6560 L | k el [1, 12]: 2.22e-06 s⁻¹ | CL/F ([1]; subject 1001, first dose 200 mg oral): 42.5 L/h | CL/F ([1]; subject 1002, first dose 200 mg oral): 16.1 L/h | CL/F ([1]; subject 1003, first dose 200 mg oral): 20.3 L/h | CL/F ([1]; subject 1004, first dose 200 mg oral): 245 L/h | Cmax and AUC of subject 1004 compared to others ([1]; subject 1004 relative to the other seven subjects): 6% to 25 | CL/F ([1]; subject 1005, first dose 200 mg oral): 17.6 L/h | CL/F ([1]; subject 1007, first dose 200 mg oral): 39.8 L/h | CL/F ([1]; subject 2006, first dose 200 mg oral): 24.8 L/h | CL/F ([1]; subject 2008, first dose 200 mg oral): 52.0 L/h | accumulation with the current regimen ([1]; trough levels days 8 and 15, 200 mg weekly): no significant accumulation | effect on CYP3A mRNA and activity (CYP3A): insignificant effect | IC50 (CYP2D6): > 35000 nM | CL/F/m^2 (BSA-adjusted CL/F) [2]: 18.0 +/− 18.8 L/hr/m^2 and 18.0±18.8 L/hr/m^2 | Cmax [2]: 171 ng/mL | Half life [2]: 44.2 ± 23.3 h | Tmax [2]: 5.1 ± 1.6 h | Vz/F/m^2 [2]: 1100±1020 L/m^2
